Source: the NIST ThermoML archive (doi:10.1007/s10765-011-1149-x)
Numbers after ± are expanded uncertainties.

Legend:
[1] = 101 kPa, Liquid, Vibrating tube method
[2] = xn = mol fraction of the nth substance listed; conditions: 101 kPa, Liquid, Vibrating tube method, x2 = 0

Row | Structure (SMILES) | mass density ([1]; 276.15 K) | mass density ([1]; 277.15 K) | mass density ([1]; 283.15 K) | mass density ([1]; 288.15 K) | mass density ([1]; 293.15 K) | mass density ([1]; 298.15 K) | mass density ([1]; 303.15 K) | mass density ([1]; 308.15 K) | mass density ([2]; 276.15 K) | mass density ([2]; 277.15 K) | mass density ([2]; 283.15 K) | mass density ([2]; 293.15 K) | mass density ([2]; 303.15 K) | mass density ([1]; 313.15 K) | further results
1 | CO [methanol] | 807.18 ± 0.15 kg/m3 | 806.25 ± 0.15 kg/m3 | 800.64 ± 0.15 kg/m3 | 795.96 ± 0.15 kg/m3 | 791.26 ± 0.15 kg/m3 | 786.55 ± 0.15 kg/m3 | 781.83 ± 0.15 kg/m3 | 777.08 ± 0.15 kg/m3 | – | – | – | – | – | – | mass density ([1]; 313.14 K): 772.31 ± 0.16 kg/m3
2 | OCCO [1,2-ethanediol] + Cc1cc(C)nc(C)c1 | – | – | – | – | – | – | – | – | 1125.17 ± 0.17 kg/m3 | 1124.48 ± 0.17 kg/m3 | 1120.32 ± 0.16 kg/m3 | 1113.37 ± 0.16 kg/m3 | 1106.36 ± 0.16 kg/m3 | – | mass density ([2]; 313.15 K): 1099.3 ± 0.16 kg/m3
3 | OCCO [1,2-ethanediol] | 1125.17 ± 0.17 kg/m3 | 1124.48 ± 0.17 kg/m3 | 1120.32 ± 0.16 kg/m3 | – | 1113.37 ± 0.16 kg/m3 | – | 1106.36 ± 0.16 kg/m3 | – | – | – | – | – | – | 1099.3 ± 0.16 kg/m3 | –
4 | Cc1cc(C)nc(C)c1 [2,4,6-trimethylpyridine] | 928.45 ± 0.23 kg/m3 | 927.61 ± 0.23 kg/m3 | 922.54 ± 0.23 kg/m3 | 918.32 ± 0.24 kg/m3 | – | 909.84 ± 0.24 kg/m3 | 905.58 ± 0.24 kg/m3 | 901.31 ± 0.24 kg/m3 | – | – | – | – | – | 897.03 ± 0.24 kg/m3 | mass density ([1]; 293.14 K): 914.08 ± 0.24 kg/m3
5 | CO [methanol] + Cc1cc(C)nc(C)c1 | – | – | – | – | – | – | – | – | 807.18 ± 0.15 kg/m3 | 806.25 ± 0.15 kg/m3 | 800.64 ± 0.15 kg/m3 | 791.26 ± 0.15 kg/m3 | 781.83 ± 0.15 kg/m3 | – | mass density ([2]; 288.15 K): 795.96 ± 0.15 kg/m3; mass density ([2]; 298.15 K): 786.55 ± 0.15 kg/m3; mass density ([2]; 308.15 K): 777.08 ± 0.15 kg/m3; mass density ([2]; 313.14 K): 772.31 ± 0.16 kg/m3
